Laboratory results: the supplement of paper PMC8497498

How the values were obtained:
[1] = test system: primary human hepatocytes; assay: CC20 hepatic nuclei (20% reduction); higher = less toxic
Summary of the method: (§1)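 Readouts of schizont growth area, hypnozoite count and hepatic nuclei came from high-content imaging of fixed, immunostained wells, normalised to DMSO and positive-control wells. The wells held primary human hepatocytes infected with P. vivax sporozoites from patient-isolate-fed mosquitoes. Compounds were delivered as 40 nL pin transfers from 1000× DMSO plates at 8 points (10 uM[…]) or 12 points in duplicate (50 uM–280 pM). Potency, maximum inhibition and nuclei-loss cytotoxicity were obtained from CDD Vault curves of the highest-quality run after toxic bell-shaped points were dropped.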

[2] = test system: Plasmodium vivax liver stage (primary human hepatocyte culture)
Summary of the method: as §1

[3] = test system: Plasmodium falciparum 3D7 asexual blood stage; assay: EC50 asexual blood stage growth; conditions: serum: 0.5% AlbuMAX
Description: (§2)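 The Reference Compound Library was tested by 10-point 3-fold dose response against P. cynomolgi Berok K4 asexual blood stages (SYBR proliferation assay, mefloquine background control). Culture medium contained 0.5% AlbuMAX or 20% M. fascicularis serum. P. falciparum 3D7 was tested in a 72-h SYBR Green assay with 0.5% AlbuMAX. Values are geometric mean EC50 over independent experiments; 10 uM is the top dose.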

[4] = test system: Plasmodium cynomolgi Berok K4 asexual blood stage; assay: EC50 asexual blood stage growth
Description: as §2

[5] = test system: Plasmodium vivax liver stage (primary human hepatocyte culture); assay: maximum inhibition of schizont net growth area; higher = more active
Summary of the method: as §1

[6] = P. vivax isolate: Pv914, hepatocyte lot: BGW, assay mode: Prophylactic, 6-day
[7] = serum: 20% M. fascicularis serum
[8] = P. vivax isolate: Pv914, hepatocyte lot: BGW, assay mode: Radical Cure, 8-day (treatment from day 5 post-infection)
[9] = P. vivax isolate: Pv557, hepatocyte lot: UBV, assay mode: Radical Cure, 8-day (treatment from day 5 post-infection)
[10] = P. vivax isolate: Pv992, hepatocyte lot: BGW, assay mode: Prophylactic, 6-day

**Q.** For `CCCCCCC[C@H]1CN[C@H](C(=O)NC(C(C)Cl)C2O[C@H](SC)[C@H](O)[C@@H](O)[C@H]2O)C1` (stereo partly drawn) [Trans-Mirincamycin], which CC20 hepatic nuclei [1, 6] is on record?
**A.** > 10000 nM

**Q.** And the EC50 hypnozoite quantity [2, 6]?
**A.** > 10000 nM

**Q.** And the “EC50 asexual blood stage growth” value [3]?
**A.** > 10000 nM

**Q.** What about the “EC50 asexual blood stage growth” value ([4]; serum: 0.5% AlbuMAX) of the same compound?
**A.** > 10000 nM

**Q.** And the “EC50 asexual blood stage growth” value [4, 7]?
**A.** > 10000 nM

**Q.** And the maximum inhibition [5, 6]?
**A.** 72.5%

**Q.** For `CN(C)[C@@H]1C(O)=C(C(N)=O)C(=O)[C@@]2(O)C(O)=C3C(=O)c4c(O)cccc4[C@@](C)(O)[C@H]3C[C@@H]12` [Tetracycline], which CC20 hepatic nuclei [1, 6] is on record?
**A.** > 10000 nM

**Q.** And the EC50 hypnozoite quantity [2, 6]?
**A.** > 10000 nM

**Q.** What about the “EC50 asexual blood stage growth” value [3] of the same compound?
**A.** > 10000 nM

**Q.** And the “EC50 asexual blood stage growth” value ([4]; serum: 0.5% AlbuMAX)?
**A.** > 10000 nM

**Q.** And the “EC50 asexual blood stage growth” value [4, 7]?
**A.** > 10000 nM

**Q.** And the maximum inhibition [5, 6]?
**A.** 56.7%

**Q.** With `CCNCc1cc(Nc2ccnc3cc(Cl)ccc23)ccc1O` [N-Desethylamodiaquine] as the compound, how does the CC20 hepatic nuclei [1, 6] read?
**A.** > 10000 nM

**Q.** And the EC50 hypnozoite quantity [2, 6]?
**A.** > 10000 nM

**Q.** What about the “EC50 schizont net growth area” value [2, 6] of the same compound?
**A.** > 3330 nM

**Q.** And the “EC50 asexual blood stage growth” value [3]?
**A.** 56 nM

**Q.** What about the “EC50 asexual blood stage growth” value ([4]; serum: 0.5% AlbuMAX) of the same compound?
**A.** 22.2 nM

**Q.** And the “EC50 asexual blood stage growth” value [4, 7]?
**A.** 11.5 nM

**Q.** What about the maximum inhibition [5, 6] of the same compound?
**A.** 74.5%

**Q.** For `OC(c1cc(C(F)(F)F)nc2c(C(F)(F)F)cccc12)C1CCCCN1` (racemic) [(±)-Mefloquine], which CC20 hepatic nuclei [1, 6] is on record?
**A.** > 3330 nM

**Q.** And the EC50 hypnozoite quantity [2, 6]?
**A.** > 10000 nM

**Q.** And the “EC50 schizont net growth area” value [2, 6]?
**A.** > 1110 nM

**Q.** What about the “EC50 asexual blood stage growth” value [3] of the same compound?
**A.** 90.1 nM

**Q.** What about the “EC50 asexual blood stage growth” value ([4]; serum: 0.5% AlbuMAX) of the same compound?
**A.** 219 nM

**Q.** What about the “EC50 asexual blood stage growth” value [4, 7] of the same compound?
**A.** 66.4 nM

**Q.** And the maximum inhibition [5, 6]?
**A.** 86%

**Q.** With `CS(=O)(=O)c1ccc(-c2cnc(N)c(-c3ccc(C(F)(F)F)nc3)n2)cc1` as the compound, how does the CC20 hepatic nuclei [1, 6] read?
**A.** > 10000 nM

**Q.** What about the CC20 hepatic nuclei [1, 8] of the same compound?
**A.** > 10000 nM

**Q.** What about the EC50 hypnozoite quantity [2, 6] of the same compound?
**A.** 7.29 nM

**Q.** And the “EC50 schizont net growth area” value [2, 6]?
**A.** 4.76 nM

**Q.** What about the EC50 hypnozoite quantity [2, 8] of the same compound?
**A.** > 10000 nM

**Q.** What about the “EC50 schizont net growth area” value [2, 8] of the same compound?
**A.** 23.9 nM

**Q.** And the “EC50 asexual blood stage growth” value [3]?
**A.** 178 nM

**Q.** What about the “EC50 asexual blood stage growth” value ([4]; serum: 0.5% AlbuMAX) of the same compound?
**A.** 4880 nM

**Q.** What about the “EC50 asexual blood stage growth” value [4, 7] of the same compound?
**A.** 629 nM

**Q.** And the maximum inhibition [5, 6]?
**A.** 101%

**Q.** What about the maximum inhibition [5, 8] of the same compound?
**A.** 96.4%

**Q.** How did the CC20 hepatic nuclei [1, 9] turn out when `Nc1ncc(-c2ccc(C(=O)N3CCNCC3)cc2)nc1-c1ccc(C(F)(F)F)cc1` [UCT943] was run?
**A.** > 10000 nM

**Q.** And the CC20 hepatic nuclei [1, 6]?
**A.** > 10000 nM

**Q.** And the EC50 hypnozoite quantity [2, 9]?
**A.** > 10000 nM

**Q.** What about the “EC50 schizont net growth area” value [2, 9] of the same compound?
**A.** 2.38 nM

**Q.** And the EC50 hypnozoite quantity [2, 6]?
**A.** 4.27 nM

**Q.** What about the “EC50 schizont net growth area” value [2, 6] of the same compound?
**A.** 1.75 nM

**Q.** What about the “EC50 asexual blood stage growth” value [3] of the same compound?
**A.** 318 nM

**Q.** What about the “EC50 asexual blood stage growth” value ([4]; serum: 0.5% AlbuMAX) of the same compound?
**A.** 34.4 nM

**Q.** And the “EC50 asexual blood stage growth” value [4, 7]?
**A.** 20.6 nM

**Q.** What about the maximum inhibition [5, 9] of the same compound?
**A.** 101%

**Q.** What about the maximum inhibition [5, 6] of the same compound?
**A.** 100%

**Q.** How did the CC20 hepatic nuclei [1, 6] turn out when `O=C(NCCN1CCCC1)c1cc(-c2ccc(CN3CCOCC3)cc2)nc2ccc(F)cc12` was run?
**A.** > 10000 nM

**Q.** And the CC20 hepatic nuclei [1, 8]?
**A.** > 10000 nM

**Q.** And the EC50 hypnozoite quantity [2, 6]?
**A.** 10.4 nM

**Q.** And the “EC50 schizont net growth area” value [2, 6]?
**A.** 2.57 nM

**Q.** What about the EC50 hypnozoite quantity [2, 8] of the same compound?
**A.** > 10000 nM

**Q.** And the “EC50 schizont net growth area” value [2, 8]?
**A.** 2.35 nM

**Q.** What about the “EC50 asexual blood stage growth” value [3] of the same compound?
**A.** 1 nM

**Q.** And the “EC50 asexual blood stage growth” value ([4]; serum: 0.5% AlbuMAX)?
**A.** 1.5 nM

**Q.** And the “EC50 asexual blood stage growth” value [4, 7]?
**A.** 0.7 nM

**Q.** And the maximum inhibition [5, 6]?
**A.** 101%

**Q.** And the maximum inhibition [5, 8]?
**A.** 92.3%

**Q.** For `CCN(CC)CCCC(C)Nc1cc(OC)cc2cccnc12` (stereo unspecified) [Pamaquine], which CC20 hepatic nuclei [1, 10] is on record?
**A.** > 10000 nM

**Q.** What about the EC50 hypnozoite quantity [2, 10] of the same compound?
**A.** > 3330 nM

**Q.** And the “EC50 schizont net growth area” value [2, 10]?
**A.** > 10000 nM

**Q.** And the “EC50 asexual blood stage growth” value [3]?
**A.** 3950 nM

**Q.** What about the “EC50 asexual blood stage growth” value ([4]; serum: 0.5% AlbuMAX) of the same compound?
**A.** 325 nM

**Q.** What about the “EC50 asexual blood stage growth” value [4, 7] of the same compound?
**A.** 187 nM

**Q.** What about the maximum inhibition [5, 10] of the same compound?
**A.** 61%

**Q.** `CCN(CC)CCCNc1ccnc2cc(Cl)ccc12` [AQ-13] was tested. Which CC20 hepatic nuclei [1, 6] did it give?
**A.** > 10000 nM

**Q.** And the EC50 hypnozoite quantity [2, 6]?
**A.** > 10000 nM

**Q.** And the “EC50 asexual blood stage growth” value [3]?
**A.** 16 nM

**Q.** What about the “EC50 asexual blood stage growth” value ([4]; serum: 0.5% AlbuMAX) of the same compound?
**A.** 78.7 nM

**Q.** And the “EC50 asexual blood stage growth” value [4, 7]?
**A.** 55.9 nM

**Q.** And the maximum inhibition [5, 6]?
**A.** 56.1%

**Q.** Which results are given for `C[C@H]1c2cccc(O)c2C(=O)C2=C(O)[C@]3(O)C(=O)C(C(N)=O)=C(O)[C@@H](N(C)C)C3[C@@H](O)C21` (stereo partly specified) [Doxycycline]?
**A.** EC50 asexual blood stage growth [3]: 9930 nM; EC50 asexual blood stage growth ([4]; serum: 0.5% AlbuMAX): 9360 nM; EC50 asexual blood stage growth [4, 7]: 8350 nM

**Q.** `CC1CCC2C(C)C(OC(=O)CCC(=O)O)OC3OC4(C)CCC1C32OO4` (stereo unspecified) [Artesunate] was tested. Which “EC50 asexual blood stage growth” value [3] did it give?
**A.** 41.3 nM

**Q.** What about the “EC50 asexual blood stage growth” value ([4]; serum: 0.5% AlbuMAX) of the same compound?
**A.** 6.2 nM

**Q.** What about the “EC50 asexual blood stage growth” value [4, 7] of the same compound?
**A.** 3 nM

**Q.** How did the “EC50 asexual blood stage growth” value [3] turn out when `CN(C)Cc1ccccc1CNc1ccnc2cc(Cl)ccc12` [Phenylequine] was run?
**A.** 7.4 nM

**Q.** And the “EC50 asexual blood stage growth” value ([4]; serum: 0.5% AlbuMAX)?
**A.** 36.6 nM

**Q.** What about the “EC50 asexual blood stage growth” value [4, 7] of the same compound?
**A.** 40.7 nM
